Patent publication US12630521B2, “Arylamides and methods of use thereof” (Genzyme Corporation, priority 2019, dated 2026)

Key:
[1] = target: T1, human Cystic Fibrosis Transmembrane Conductance Regulator (CFTR) harboring the ΔF508 mutation (Homo sapiens, UniProt P13569, DEL508-508); assay: H441 cell Emax and EC50: HRP-tagged ΔF508-CFTR cell-surface luminescence assay; format: cell-based; conditions: H441 cells expressing HRP-tagged ΔF508-CFTR, 27° C. for two nights; for EC50: 15-point dose-response; for Emax: NCI-H441, % of maximum VX809 signal
T1 construct: expressed in transfected cells; host or cells: H441 carcinoma cell line (G418 selection)
T1 sequence (P13569 with tags, fused parts or gaps DEL508-508): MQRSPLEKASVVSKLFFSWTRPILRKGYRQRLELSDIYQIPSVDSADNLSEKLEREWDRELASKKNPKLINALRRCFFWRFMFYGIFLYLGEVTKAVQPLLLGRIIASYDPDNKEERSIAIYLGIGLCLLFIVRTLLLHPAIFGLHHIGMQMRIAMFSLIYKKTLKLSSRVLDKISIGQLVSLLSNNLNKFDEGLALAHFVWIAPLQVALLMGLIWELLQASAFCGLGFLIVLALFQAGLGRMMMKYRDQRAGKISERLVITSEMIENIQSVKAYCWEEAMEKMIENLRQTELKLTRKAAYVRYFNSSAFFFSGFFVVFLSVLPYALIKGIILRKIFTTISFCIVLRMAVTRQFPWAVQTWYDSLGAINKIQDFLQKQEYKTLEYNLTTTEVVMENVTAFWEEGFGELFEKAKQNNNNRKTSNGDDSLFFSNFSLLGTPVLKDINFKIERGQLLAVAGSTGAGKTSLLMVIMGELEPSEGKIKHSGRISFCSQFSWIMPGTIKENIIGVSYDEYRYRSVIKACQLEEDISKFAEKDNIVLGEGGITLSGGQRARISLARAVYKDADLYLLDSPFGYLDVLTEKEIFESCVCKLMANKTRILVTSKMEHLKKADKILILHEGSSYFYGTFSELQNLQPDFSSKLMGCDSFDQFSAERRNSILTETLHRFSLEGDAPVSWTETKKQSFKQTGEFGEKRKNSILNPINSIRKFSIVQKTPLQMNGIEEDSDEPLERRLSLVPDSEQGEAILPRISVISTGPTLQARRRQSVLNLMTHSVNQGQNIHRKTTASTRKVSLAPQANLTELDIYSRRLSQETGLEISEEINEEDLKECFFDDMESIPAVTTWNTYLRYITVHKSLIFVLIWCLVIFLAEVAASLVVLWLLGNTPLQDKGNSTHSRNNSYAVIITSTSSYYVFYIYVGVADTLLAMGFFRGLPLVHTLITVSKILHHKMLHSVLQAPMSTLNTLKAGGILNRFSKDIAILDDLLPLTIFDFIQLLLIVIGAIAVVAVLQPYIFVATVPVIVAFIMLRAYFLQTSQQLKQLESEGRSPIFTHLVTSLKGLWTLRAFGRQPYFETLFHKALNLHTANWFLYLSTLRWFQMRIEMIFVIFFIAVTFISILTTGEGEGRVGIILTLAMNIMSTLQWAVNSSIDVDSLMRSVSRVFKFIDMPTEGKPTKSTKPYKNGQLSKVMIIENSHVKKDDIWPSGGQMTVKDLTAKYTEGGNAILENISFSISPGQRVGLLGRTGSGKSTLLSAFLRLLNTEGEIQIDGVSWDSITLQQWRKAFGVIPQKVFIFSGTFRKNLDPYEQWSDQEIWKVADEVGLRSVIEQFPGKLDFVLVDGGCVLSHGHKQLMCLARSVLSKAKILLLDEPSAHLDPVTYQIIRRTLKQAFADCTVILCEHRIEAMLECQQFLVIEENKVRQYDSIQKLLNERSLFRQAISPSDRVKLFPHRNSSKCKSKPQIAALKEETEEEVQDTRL
How it was run: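 H441 cells expressing ΔF508-CFTR with HRP fused in extracellular loop 4 (CMV promoter), ~10K cells/well, 15-point dose range 24.5 to 0.001 μM, incubated at 27° C. for two nights. Surface CFTR read by Luminata Forte luminescence; Emax as % of maximum VX809 signal, plus EC50.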

[2] = target: T2, CFTR (ΔF508 homozygous CF-HBE cells) (Homo sapiens, UniProt P13569, DEL508-508); assay: TECC24 AUC fold over DMSO @10 uM: CFTR-mediated transepithelial chloride transport in primary CF-HBE cells; format: cell-based; conditions: 10 μM test agent, 48 hours, forskolin-stimulated IEQ AUC divided by vehicle AUC
T2 construct: Primary human bronchial epithelial cells from a ΔF508 homozygous CF donor; host or cells: primary CF-HBE cells (ΔF508/ΔF508 donor)
T2 sequence (P13569 with tags, fused parts or gaps DEL508-508): as above
How it was run: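 Primary ΔF508-homozygous CF bronchial epithelial cells were exposed to test agent for 48 h at 36.5° C, then VT and TEER were recorded with benzamil (10 μM), forskolin (10 μM) stimulation and CFTR inhibitor-172 (20 μM) at the end. AUC of equivalent Cl- current between forskolin and inhibitor is expressed as fold over DMSO vehicle.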

For `Cc1c(Cl)sc2ccc(C(=O)N[C@H](C(=O)O)C(C)(C)C)c(OCc3ccc(C(F)(F)F)cc3)c12` [Compound 35-1, (2S)-2-[[2-chloro-3-methyl-4-[[4-(trifluoromethyl)phenyl]methoxy]-benzothiophene-5-carbonyl]amino]-3,3-dimethyl-butanoic acid], which EC50 [1] is on record?
Its EC50 is 618 nM.

What about the Emax [1] of the same compound?
The Emax was 151%.

What about the “TECC24 AUC fold over DMSO” value [2] of the same compound?
Its value is “A (“A” refers to AUC @10 μM > 6)”.

For `CC1(C(NC(=O)c2ccc3sccc3c2OCc2ccc(OC(F)(F)F)cc2)C(=O)O)CCCCC1` (stereo not drawn) [Compound 32-6, 2-(1-methylcyclohexyl)-2-(4-((4-(trifluoromethoxy)benzyl)oxy)-benzo[b]thiophene-5-carboxamido)acetic acid], which EC50 [1] is on record?
Its EC50 is 3300 nM.

And the Emax [1]?
The Emax was 142%.

And the “TECC24 AUC fold over DMSO” value [2]?
Its value is “C (“C” refers to AUC @10 μM < 4)”.

Which EC50 [1] does the source give for `CCC(C)(C)[C@H](NC(=O)c1ccc2sc(C)cc2c1OCc1ccc(C(F)(F)F)cc1)C(=O)O` [Compound 33-24, (2S)-3,3-dimethyl-2-(2-methyl-4-((4-(trifluoromethyl)benzyl)oxy)-benzo[b]thiophene-5-carboxamido)pentanoic acid] here?
Its EC50 is 412 nM.

And the Emax [1]?
The Emax was 270%.

What about the “TECC24 AUC fold over DMSO” value [2] of the same compound?
Its value is “A (“A” refers to AUC @10 μM > 6)”.

What does the source list for `Cc1cc2c(OCc3ccc(OC(F)(F)F)cc3)c(C(=O)N[C@H](C(=O)O)C(C)(C)C)ccc2s1` [Compound 33-13, (2S)-3,3-dimethyl-2-(2-methyl-4-((4-(trifluoromethoxy)benzyl)oxy)-benzo[b]thiophene-5-carboxamido)butanoic acid]?
EC50 [1]: 377 nM; Emax [1]: 324%; TECC24 AUC fold over DMSO [2]: A (“A” refers to AUC @10 μM > 6)

Which results are given for `Cc1cc2ccc(C(=O)N[C@H](C(=O)O)C(C)(C)C)c(OCc3ccc(C(F)(F)F)cc3)c2s1` [Compound 33-11, (2S)-3,3-dimethyl-2-(2-methyl-7-((4-(trifluoromethyl)benzyl)oxy)-benzo[b]thiophene-6-carboxamido)butanoic acid]?
EC50 [1]: 474 nM; Emax [1]: 187%; TECC24 AUC fold over DMSO [2]: B (“B” refers to AUC @10 μM between 4-6)

Which results are given for `CC(C)c1cc2c(OCc3ccc(C(F)(F)F)cc3)c(C(=O)N[C@H](C(=O)O)C(C)(C)C)ccc2s1` [Compound 33-34, (2S)-2-(2-isopropyl-4-((4-(trifluoromethyl)benzyl)oxy)-benzo[b]thiophene-5-carboxamido)-3,3-dimethylbutanoic acid]?
EC50 [1]: 637 nM; Emax [1]: 238%; TECC24 AUC fold over DMSO [2]: A (“A” refers to AUC @10 μM > 6)

With `COc1cc2c(OCc3ccc(C(F)(F)F)cc3)c(C(=O)N[C@H](C(=O)O)C(C)(C)C)ccc2s1` [Compound 33-7, (2S)-2-(2-methoxy-4-((4-(trifluoromethyl)benzyl)oxy)-benzo[b]thiophene-5-carboxamido)-3,3-dimethylbutanoic acid] as the compound, how does the EC50 [1] read?
The EC50 was 641 nM.

And the Emax [1]?
The Emax was 312%.

What about the “TECC24 AUC fold over DMSO” value [2] of the same compound?
Its value is “A (“A” refers to AUC @10 μM > 6)”.

For `CCC(C)(C)[C@H](NC(=O)c1ccc2sc(C(F)(F)F)cc2c1OCc1ccc(C(F)(F)F)cc1)C(=O)O` [Compound 33-25, (2S)-3,3-dimethyl-2-(2-(trifluoromethyl)-4-((4-(trifluoromethyl)benzyl)oxy)-benzo[b]thiophene-5-carboxamido)pentanoic acid], which EC50 [1] is on record?
The EC50 was 577 nM.

What about the Emax [1] of the same compound?
Its Emax is 200%.

And the “TECC24 AUC fold over DMSO” value [2]?
Its value is “A (“A” refers to AUC @10 μM > 6)”.

`Cc1c(Cl)sc2ccc(C(=O)N[C@H](C(=O)O)C3(C)CC3)c(OCc3ccc(C(F)(F)F)cc3)c12` [Compound 34-7, (S)-2-(2-chloro-3-methyl-4-((4-(trifluoromethyl)benzyl)oxy)-benzo[b]thiophene-5-carboxamido)-2-(1-methylcyclopropyl)acetic acid] was tested. Which EC50 [1] did it give?
The EC50 was 612 nM.

And the Emax [1]?
Its Emax is 84.2%.

What about the “TECC24 AUC fold over DMSO” value [2] of the same compound?
Its value is “A (“A” refers to AUC @10 μM > 6)”.

For `CC(C)c1cc2ccc(C(=O)N[C@H](C(=O)O)C(C)(C)C)c(OCc3ccc(C(F)(F)F)cc3)c2s1` [Compound 33-31, (2S)-2-(2-isopropyl-7-((4-(trifluoromethyl)benzyl)oxy)-benzo[b]thiophene-6-carboxamido)-3,3-dimethylbutanoic acid], which EC50 [1] is on record?
The EC50 was 532 nM.

And the Emax [1]?
The Emax was 131%.

What about the “TECC24 AUC fold over DMSO” value [2] of the same compound?
Its value is “C (“C” refers to AUC @10 μM < 4)”.

Which EC50 [1] does the source give for `CC(C)c1cc2c(OCc3ccc(OC(F)(F)F)cc3)c(C(=O)N[C@H](C(=O)O)C(C)(C)C)ccc2s1` [Compound 33-4, (2S)-2-(2-isopropyl-4-((4-(trifluoromethoxy)benzyl)oxy)-benzo[b]thiophene-5-carboxamido)-3,3-dimethylbutanoic acid] here?
The EC50 was 2350 nM.

And the Emax [1]?
The Emax was 232%.

What about the “TECC24 AUC fold over DMSO” value [2] of the same compound?
Its value is “A (“A” refers to AUC @10 μM > 6)”.

For `CCC(C)(C)[C@H](NC(=O)c1ccc2sc(Cl)cc2c1OCc1ccc(C(F)(F)F)cc1)C(=O)O` [Compound 33-6, (2S)-2-(2-chloro-4-((4-(trifluoromethyl)benzyl)oxy)-benzo[b]thiophene-5-carboxamido)-3,3-dimethylpentanoic acid], which EC50 [1] is on record?
The EC50 was 500 nM.

And the Emax [1]?
Its Emax is 279%.

And the “TECC24 AUC fold over DMSO” value [2]?
The value was “A (“A” refers to AUC @10 μM > 6)”.

What does the source list for `CC1(C(NC(=O)c2ccc3sccc3c2OCC2CCC(F)(F)CC2)C(=O)O)CCCCC1` (stereo not drawn) [Compound 32-4, 2-(4-((4,4-difluorocyclohexyl)methoxy)-benzo[b]thiophene-5-carboxamido)-2-(1-methylcyclohexyl)acetic acid]?
EC50 [1]: 4370 nM; Emax [1]: 78.7%; TECC24 AUC fold over DMSO [2]: C (“C” refers to AUC @10 μM < 4)

Which results are given for `Cc1c(Cl)sc2ccc(C(=O)N[C@H](C(=O)O)C3(C)CCC3)c(OCc3ccc(OC(F)(F)F)cc3)c12` [Compound 34-6, (S)-2-(2-chloro-3-methyl-4-((4-(trifluoromethoxy)benzyl)oxy)-benzo[b]thiophene-5-carboxamido)-2-(1-methylcyclobutyl)acetic acid]?
EC50 [1]: 1190 nM; Emax [1]: 155%; TECC24 AUC fold over DMSO [2]: A (“A” refers to AUC @10 μM > 6)

For `Cc1c(Cl)sc2ccc(C(=O)N[C@H](C(=O)O)C3(C)CC3)c(OCc3ccc(OC(F)(F)F)cc3)c12` [Compound 34-5, (S)-2-(2-chloro-3-methyl-4-((4-(trifluoromethoxy)benzyl)oxy)-benzo[b]thiophene-5-carboxamido)-2-(1-methylcyclopropyl)acetic acid], which EC50 [1] is on record?
Its EC50 is 509 nM.

What about the Emax [1] of the same compound?
The Emax was 106%.

What about the “TECC24 AUC fold over DMSO” value [2] of the same compound?
Its value is “A (“A” refers to AUC @10 μM > 6)”.

With `CCC(C)(C)[C@H](NC(=O)c1ccc2sc(Cl)c(C)c2c1OCc1ccc(C(F)(F)F)cc1)C(=O)O` [Compound 34-3] as the compound, how does the EC50 [1] read?
The EC50 was 406 nM.

What about the Emax [1] of the same compound?
The Emax was 222%.

What about the “TECC24 AUC fold over DMSO” value [2] of the same compound?
The value was “A (“A” refers to AUC @10 μM > 6)”.

Which results are given for `CCC(C)(C)[C@H](NC(=O)c1ccc2cc(CCC(C)C)sc2c1OCc1ccc(C(F)(F)F)cc1)C(=O)O` [Compound 33-32, (2S)-2-(2-isopentyl-7-((4-(trifluoromethyl)benzyl)oxy)-benzo[b]thiophene-6-carboxamido)-3,3-dimethylpentanoic acid]?
EC50 [1]: 277 nM; Emax [1]: 168%; TECC24 AUC fold over DMSO [2]: B (“B” refers to AUC @10 μM between 4-6)

With `CC(C)(C)[C@H](NC(=O)c1ccc2sccc2c1OCc1ccc(SC(F)(F)F)cc1)C(=O)O` [Compound 32-11, (2S)-3,3-dimethyl-2-(4-((4-((trifluoromethyl)thio)benzyl)oxy)-benzo[b]thiophene-5-carboxamido)butanoic acid] as the compound, how does the EC50 [1] read?
Its EC50 is 1040 nM.

And the Emax [1]?
The Emax was 81.3%.

And the “TECC24 AUC fold over DMSO” value [2]?
The value was “B (“B” refers to AUC @10 μM between 4-6)”.

What does the source list for `CCc1cc2c(OCc3ccc(C(F)(F)F)cc3)c(C(=O)N[C@H](C(=O)O)C(C)(C)CC)ccc2s1` [Compound 33-27, (2S)-2-(2-ethyl-4-((4-(trifluoromethyl)benzyl)oxy)-benzo[b]thiophene-5-carboxamido)-3,3-dimethylpentanoic acid]?
EC50 [1]: 309 nM; Emax [1]: 262%; TECC24 AUC fold over DMSO [2]: A (“A” refers to AUC @10 μM > 6)

How did the EC50 [1] turn out when `CC(C)(C)[C@H](NC(=O)c1ccc2sccc2c1OCC1CCCCC1)C(=O)O` [Compound 32-14, (2S)-2-(4-(cyclohexylmethoxy)-benzo[b]thiophene-5-carboxamido)-3,3-dimethylbutanoic acid] was run?
Its EC50 is 2780 nM.

And the Emax [1]?
The Emax was 210%.

What about the “TECC24 AUC fold over DMSO” value [2] of the same compound?
Its value is “C (“C” refers to AUC @10 μM < 4)”.
